# Tested on: MV-4-11 cells
# Experiment: Gene expression microarray analysis (Affymetrix PrimeView) and GSEA
# Assay type: cell-based, human
# Parameters: RFU PODN (11730768_x_at) / Fold change /veh PODN (11730768_x_at) / RFU LINC00158 (11744669_a_at) / Fold change /veh LINC00158 (11744669_a_at) / RFU DUSP10 (11751237_a_at) / Fold change /veh DUSP10 (11751237_a_at) / RFU ID3 (11757404_x_at) / Fold change /veh ID3 (11757404_x_at) / RFU PLEKHG5 (11737974_s_at) / Fold change /veh PLEKHG5 (11737974_s_at) / RFU LRRC4B (11730491_at) / Fold change /veh LRRC4B (11730491_at) / RFU GIMAP4 (11747438_a_at) / Fold change /veh GIMAP4 (11747438_a_at) / RFU KRT8 (11758183_x_at) / Fold change /veh KRT8 (11758183_x_at) / RFU CNN1 (11734310_a_at) / Fold change /veh CNN1 (11734310_a_at) / RFU VPS37D (11726825_at) / Fold change /veh VPS37D (11726825_at) / RFU C10orf10 (11716522_x_at) / Fold change /veh C10orf10 (11716522_x_at) / RFU KIR2DL2 /// KIR2DL4 /// KIR2DL5A /// KIR2DL5B /// KIR2DS1 /// KIR2DS2 /// KIR2DS3 /// KIR2DS4 /// KIR3DL3 /// KIR3DL3 /// KIR3DS1 (11738374_at) / Fold change /veh KIR2DL2 /// KIR2DL4 /// KIR2DL5A /// KIR2DL5B /// KIR2DS1 /// KIR2DS2 /// KIR2DS3 /// KIR2DS4 /// KIR3DL3 /// KIR3DL3 /// KIR3DS1 (11738374_at) / RFU C1QL1 (11718748_at) / Fold change /veh C1QL1 (11718748_at) / RFU TMPRSS4 (11747572_a_at) / Fold change /veh TMPRSS4 (11747572_a_at) / RFU HAMP (11756126_x_at) / Fold change /veh HAMP (11756126_x_at) / RFU RNFT2 (11725882_a_at) / Fold change /veh RNFT2 (11725882_a_at) / RFU NR4A2 (11747474_a_at) / Fold change /veh NR4A2 (11747474_a_at) / RFU ABCC12 (11746883_a_at) / Fold change /veh ABCC12 (11746883_a_at) / RFU TMEM136 (11760407_x_at) / Fold change /veh TMEM136 (11760407_x_at) / RFU CLDN22 /// WWC2 (11732394_at) / Fold change /veh CLDN22 /// WWC2 (11732394_at) / RFU HLA-DPB1 (11760878_x_at) / Fold change /veh HLA-DPB1 (11760878_x_at) / RFU SPINT1 (11716480_a_at) / Fold change /veh SPINT1 (11716480_a_at) / RFU GAP43 (11754022_s_at) / Fold change /veh GAP43 (11754022_s_at) / RFU A4GNT (11735810_at) / Fold change /veh A4GNT (11735810_at) / RFU PRB3 (11715151_x_at) / Fold change /veh PRB3 (11715151_x_at) / RFU TUBB4B (11761932_at) / Fold change /veh TUBB4B (11761932_at) / RFU CAPN14 (11732068_a_at) / Fold change /veh CAPN14 (11732068_a_at) / RFU TMCC2 (11721928_a_at) / Fold change /veh TMCC2 (11721928_a_at) / RFU IRGQ (11745062_a_at) / Fold change /veh IRGQ (11745062_a_at) / RFU FAM174B (11720279_a_at) / Fold change /veh FAM174B (11720279_a_at) / RFU TMPRSS4 (11748680_a_at) / Fold change /veh TMPRSS4 (11748680_a_at) / RFU FAM212B (11763350_a_at) / Fold change /veh FAM212B (11763350_a_at) / RFU PLEKHG5 (11743358_a_at) / Fold change /veh PLEKHG5 (11743358_a_at) / RFU ZSCAN30 (11745921_a_at) / Fold change /veh ZSCAN30 (11745921_a_at) / RFU CMKLR1 (11741424_a_at) / Fold change /veh CMKLR1 (11741424_a_at) / RFU LOC101060620 /// MAPK8IP1 (11723275_at) / Fold change /veh LOC101060620 /// MAPK8IP1 (11723275_at) / RFU SPTSSB (11747773_x_at) / Fold change /veh SPTSSB (11747773_x_at) / RFU PRSS12 (11739890_at) / Fold change /veh PRSS12 (11739890_at) / RFU BIN1 (11741810_x_at) / Fold change /veh BIN1 (11741810_x_at) / RFU WNT11 (11732464_a_at) / Fold change /veh WNT11 (11732464_a_at) / RFU C10orf10 (11716521_a_at) / Fold change /veh C10orf10 (11716521_a_at) / RFU C5orf56 (11738089_at) / Fold change /veh C5orf56 (11738089_at) / RFU CYB561 (11721691_x_at) / Fold change /veh CYB561 (11721691_x_at) / RFU ANKRD19P (11752326_a_at) / Fold change /veh ANKRD19P (11752326_a_at) / RFU OR2T12 /// OR2T33 /// OR2T8 (11738714_s_at) / Fold change /veh OR2T12 /// OR2T33 /// OR2T8 (11738714_s_at) / RFU VCAN (11748164_a_at) / Fold change /veh VCAN (11748164_a_at) / RFU JSRP1 (11732532_at) / Fold change /veh JSRP1 (11732532_at) / RFU KRTAP10-11 (11738290_x_at) / Fold change /veh KRTAP10-11 (11738290_x_at) / RFU MYO3A (11730013_a_at) / Fold change /veh MYO3A (11730013_a_at) / RFU EBF3 (11725865_a_at) / Fold change /veh EBF3 (11725865_a_at) / RFU CAMK2N1 (11719241_x_at) / Fold change /veh CAMK2N1 (11719241_x_at) / RFU C5orf56 (11738088_a_at) / Fold change /veh C5orf56 (11738088_a_at) / RFU OLFML3 (11715873_a_at) / Fold change /veh OLFML3 (11715873_a_at) / RFU LOC100653217 /// NTM (11731650_a_at) / Fold change /veh LOC100653217 /// NTM (11731650_a_at) / RFU MAPK11 (11762145_a_at) / Fold change /veh MAPK11 (11762145_a_at) / RFU FIZ1 (11724087_x_at) / Fold change /veh FIZ1 (11724087_x_at) / RFU OASL (11726364_x_at) / Fold change /veh OASL (11726364_x_at) / RFU SOX15 (11748057_x_at) / Fold change /veh SOX15 (11748057_x_at) / RFU CD79A (11719716_a_at) / Fold change /veh CD79A (11719716_a_at) / RFU HIST1H1D (11736915_at) / Fold change /veh HIST1H1D (11736915_at) / RFU CASKIN2 (11723855_a_at) / Fold change /veh CASKIN2 (11723855_a_at) / RFU LOC730098 (11760151_x_at) / Fold change /veh LOC730098 (11760151_x_at) / RFU OR4N2 (11742367_at) / Fold change /veh OR4N2 (11742367_at) / RFU PRRT2 (11749266_a_at) / Fold change /veh PRRT2 (11749266_a_at) / RFU SNX32 (11753110_a_at) / Fold change /veh SNX32 (11753110_a_at) / RFU CDHR5 (11726645_a_at) / Fold change /veh CDHR5 (11726645_a_at) / RFU RCAN1 (11760418_a_at) / Fold change /veh RCAN1 (11760418_a_at) / RFU FAM167A (11723789_a_at) / Fold change /veh FAM167A (11723789_a_at) / RFU FAM26E (11764081_at) / Fold change /veh FAM26E (11764081_at) / RFU ISYNA1 (11749810_s_at) / Fold change /veh ISYNA1 (11749810_s_at) / RFU ACY1 (11761880_at) / Fold change /veh ACY1 (11761880_at) / RFU 11764098_at / Fold change /veh 11764098_at / RFU SAMD14 (11745864_x_at) / Fold change /veh SAMD14 (11745864_x_at) / RFU NPB (11741838_a_at) / Fold change /veh NPB (11741838_a_at) / RFU TMPRSS6 (11731388_a_at) / Fold change /veh TMPRSS6 (11731388_a_at) / RFU KRTAP10-2 (11738614_at) / Fold change /veh KRTAP10-2 (11738614_at) / RFU ARHGAP8 /// PRR5-ARHGAP8 (11727945_x_at) / Fold change /veh ARHGAP8 /// PRR5-ARHGAP8 (11727945_x_at) / RFU KRTAP5-7 /// NADSYN1 (11734609_at) / Fold change /veh KRTAP5-7 /// NADSYN1 (11734609_at) / RFU RASL12 (11751679_a_at) / Fold change /veh RASL12 (11751679_a_at) / RFU CDKN2B (11736163_a_at) / Fold change /veh CDKN2B (11736163_a_at) / RFU PRF1 (11729649_at) / Fold change /veh PRF1 (11729649_at) / RFU, ZNF638 /// ZNF638-IT1 / Fold change vs veh, ZNF638 /// ZNF638-IT1 / RFU, PANK3 / Fold change vs veh, PANK3 / RFU, SH3YL1 / Fold change vs veh, SH3YL1 / RFU, ZEB2 / Fold change vs veh, ZEB2 / RFU, NRIP1 / Fold change vs veh, NRIP1 / RFU, PTTG1IP / Fold change vs veh, PTTG1IP / RFU, CAPN2 / Fold change vs veh, CAPN2 / RFU, MED14 / Fold change vs veh, MED14 / RFU, SNORA58 / Fold change vs veh, SNORA58 / RFU, C1orf63 / Fold change vs veh, C1orf63 / RFU, LRRFIP1 / Fold change vs veh, LRRFIP1 / RFU, NDUFAF7 / Fold change vs veh, NDUFAF7 / RFU, SLC12A2 / Fold change vs veh, SLC12A2 / RFU, IBTK / Fold change vs veh, IBTK / RFU, ESF1 / Fold change vs veh, ESF1 / Fold change vs veh, TMEM50B / RFU, TAOK1 / Fold change vs veh, TAOK1 / RFU, ACBD3 / Fold change vs veh, ACBD3 / RFU, TMA16 / Fold change vs veh, TMA16 / RFU, RWDD3 / Fold change vs veh, RWDD3 / RFU, BCAT1 / Fold change vs veh, BCAT1 / RFU, EDEM3 / Fold change vs veh, EDEM3 / RFU, TMEM33 / Fold change vs veh, TMEM33 / RFU, WDR75 / Fold change vs veh, WDR75 / RFU, AHCTF1 / Fold change vs veh, AHCTF1 / RFU, TFRC / Fold change vs veh, TFRC / RFU, ZDHHC17 / Fold change vs veh, ZDHHC17 / RFU, NOM1 / Fold change vs veh, NOM1 / RFU, ARL8B / Fold change vs veh, ARL8B / RFU, ZBTB11 / Fold change vs veh, ZBTB11 / RFU, TAMM41 / Fold change vs veh, TAMM41 / RFU, KIAA1704 /// LOC100996395 / Fold change vs veh, KIAA1704 /// LOC100996395 / RFU, ING1 / Fold change vs veh, ING1 / RFU, TRMT61B / Fold change vs veh, TRMT61B / RFU, FUBP3 / Fold change vs veh, FUBP3 / RFU, TP53 / Fold change vs veh, TP53 / RFU, TNKS2 / Fold change vs veh, TNKS2 / RFU, ZFP14 / Fold change vs veh, ZFP14 / RFU, ACTR2 / Fold change vs veh, ACTR2 / RFU, PPP3R1 / Fold change vs veh, PPP3R1 / RFU, PIK3R1 / Fold change vs veh, PIK3R1 / RFU, HNRNPA1 / Fold change vs veh, HNRNPA1 / RFU, RNF170 / Fold change vs veh, RNF170 / RFU, ZNF28 / Fold change vs veh, ZNF28 / RFU, RNGTT / Fold change vs veh, RNGTT / RFU, OGT / Fold change vs veh, OGT / RFU, BRD1 / Fold change vs veh, BRD1 / RFU, MARS / Fold change vs veh, MARS / RFU, ZNF655 / Fold change vs veh, ZNF655 / RFU, FAHD1 / Fold change vs veh, FAHD1 / RFU, BDP1 / Fold change vs veh, BDP1 / RFU, LRRCC1 / Fold change vs veh, LRRCC1 / RFU, ARID1A / Fold change vs veh, ARID1A / RFU, ZNF146 / Fold change vs veh, ZNF146 / RFU, ZNF330 / Fold change vs veh, ZNF330 / RFU, GPN3 / Fold change vs veh, GPN3 / RFU, C9orf123 / Fold change vs veh, C9orf123 / RFU, N4BP2L2 / Fold change vs veh, N4BP2L2 / RFU, ARFIP1 / Fold change vs veh, ARFIP1 / RFU, FAM179B / Fold change vs veh, FAM179B / RFU, BCL10 / Fold change vs veh, BCL10 / RFU, UHRF1BP1L / Fold change vs veh, UHRF1BP1L / RFU, BET1 / Fold change vs veh, BET1 / RFU, CNOT2 / Fold change vs veh, CNOT2 / RFU, ZNF268 / Fold change vs veh, ZNF268 / Fold change vs veh, ZNF507 / RFU, DGCR2 / Fold change vs veh, DGCR2 / RFU, WDSUB1 / Fold change vs veh, WDSUB1 / Fold change vs veh, HSP90B1 /// MIR3652 / RFU, ADSS / Fold change vs veh, ADSS / RFU, GK / Fold change vs veh, GK / RFU, ZNF148 / Fold change vs veh, ZNF148 / RFU, TAF9 / Fold change vs veh, TAF9 / RFU, SLC1A5 / Fold change vs veh, SLC1A5 / RFU, SLMO2 / Fold change vs veh, SLMO2 / RFU, ABCC4 / Fold change vs veh, ABCC4 / RFU, LOC101060439 /// RAP1B / Fold change vs veh, LOC101060439 /// RAP1B / RFU, RFX7 / Fold change vs veh, RFX7 / RFU, GTPBP10 / Fold change vs veh, GTPBP10 / RFU, CNEP1R1 / Fold change vs veh, CNEP1R1 / RFU, BIVM-ERCC5 /// ERCC5 / Fold change vs veh, BIVM-ERCC5 /// ERCC5 / RFU, ILF3 / Fold change vs veh, ILF3 / RFU 11762660_at / Fold change /veh 11762660_at / RFU VCAN (11757783_s_at) / Fold change /veh VCAN (11757783_s_at) / RFU DDX43 (11728927_at) / Fold change /veh DDX43 (11728927_at) / RFU KRT8 (11758188_x_at) / Fold change /veh KRT8 (11758188_x_at) / RFU NKD1 (11759106_at) / Fold change /veh NKD1 (11759106_at) / RFU SRD5A1 (11742802_a_at) / Fold change /veh SRD5A1 (11742802_a_at) / RFU TPSAB1 /// TPSB2 (11721975_s_at) / Fold change /veh TPSAB1 /// TPSB2 (11721975_s_at) / RFU GSTM3 (11746129_a_at) / Fold change /veh GSTM3 (11746129_a_at) / RFU IL23R (11737362_x_at) / Fold change /veh IL23R (11737362_x_at) / RFU TMEM51 (11727254_a_at) / Fold change /veh TMEM51 (11727254_a_at) / RFU PIWIL2 (11732686_x_at) / Fold change /veh PIWIL2 (11732686_x_at) / RFU ORM1 (11744905_x_at) / Fold change /veh ORM1 (11744905_x_at) / RFU CCDC152 (11743942_at) / Fold change /veh CCDC152 (11743942_at) / RFU ECM1 (11717891_a_at) / Fold change /veh ECM1 (11717891_a_at) / RFU IL23R (11748794_a_at) / Fold change /veh IL23R (11748794_a_at) / RFU TNFAIP8L3 (11732012_x_at) / Fold change /veh TNFAIP8L3 (11732012_x_at) / RFU MBOAT4 (11741988_at) / Fold change /veh MBOAT4 (11741988_at) / RFU 11764193_at / Fold change /veh 11764193_at / RFU TMEM53 (11763286_at) / Fold change /veh TMEM53 (11763286_at) / RFU MAGEB2 (11727129_at) / Fold change /veh MAGEB2 (11727129_at) / RFU TMEM200A (11744735_a_at) / Fold change /veh TMEM200A (11744735_a_at) / RFU CCDC152 (11751479_a_at) / Fold change /veh CCDC152 (11751479_a_at) / RFU FAM211A (11726209_a_at) / Fold change /veh FAM211A (11726209_a_at) / RFU RGS16 (11746705_a_at) / Fold change /veh RGS16 (11746705_a_at) / RFU VCAN (11755009_s_at) / Fold change /veh VCAN (11755009_s_at) / RFU RHOB (11743442_s_at) / Fold change /veh RHOB (11743442_s_at) / RFU RGS16 (11720943_a_at) / Fold change /veh RGS16 (11720943_a_at) / RFU RGS16 (11720944_at) / Fold change /veh RGS16 (11720944_at) / RFU, VPS4B / Fold change vs veh, VPS4B / RFU, CREB1 / Fold change vs veh, CREB1 / RFU, DNAJC13 / Fold change vs veh, DNAJC13 / RFU, GNAQ / Fold change vs veh, GNAQ / RFU, CDK5R1 / Fold change vs veh, CDK5R1 / RFU, ZRANB3 / Fold change vs veh, ZRANB3 / RFU, CUL4A / Fold change vs veh, CUL4A / RFU, CCNY / Fold change vs veh, CCNY / RFU, UFL1 / Fold change vs veh, UFL1 / RFU, COG3 / Fold change vs veh, COG3 / RFU, DIAPH2 / Fold change vs veh, DIAPH2 / RFU, SKA2 / Fold change vs veh, SKA2 / RFU, AFF3 / Fold change vs veh, AFF3 / RFU, LMF1 / Fold change vs veh, LMF1 / RFU, IPO11 / Fold change vs veh, IPO11 / RFU, DFFB / Fold change vs veh, DFFB / RFU, FOXP1 / Fold change vs veh, FOXP1 / RFU, CARD8 / Fold change vs veh, CARD8 / RFU, STRN3 / Fold change vs veh, STRN3 / RFU, ADK / Fold change vs veh, ADK / RFU, RASSF2 / Fold change vs veh, RASSF2 / RFU, WIPF1 / Fold change vs veh, WIPF1 / RFU, LARP1B / Fold change vs veh, LARP1B / RFU, RASA1 / Fold change vs veh, RASA1 / RFU, RB1 / Fold change vs veh, RB1 / RFU, PPFIA1 / Fold change vs veh, PPFIA1 / RFU, MAT2A / Fold change vs veh, MAT2A / RFU, CCT5 / Fold change vs veh, CCT5 / RFU, WDR92 / Fold change vs veh, WDR92 / RFU, CUX1 / Fold change vs veh, CUX1 / RFU, TTC7A / Fold change vs veh, TTC7A / RFU, TMEM135 / Fold change vs veh, TMEM135 / RFU, DEPTOR / Fold change vs veh, DEPTOR / RFU, CPM / Fold change vs veh, CPM / RFU, DNAJB6 / Fold change vs veh, DNAJB6 / RFU, CACNA2D3 / Fold change vs veh, CACNA2D3 / RFU, DTX4 / Fold change vs veh, DTX4 / RFU, TFCP2 / Fold change vs veh, TFCP2 / RFU, GMCL1 /// GMCL1P1 / Fold change vs veh, GMCL1 /// GMCL1P1 / RFU, AEBP2 / Fold change vs veh, AEBP2 / RFU, SNHG1 /// SNORD22 /// SNORD25 /// SNORD26 /// SNORD27 /// SNORD28 /// SNORD29 /// SNORD31 / Fold change vs veh, SNHG1 /// SNORD22 /// SNORD25 /// SNORD26 /// SNORD27 /// SNORD28 /// SNORD29 /// SNORD31 / Fold change (Aza/veh), C12orf56 (ProbeSet 11735607_a_at) / Fold change (ACY-1035/veh), C12orf56 (ProbeSet 11735607_a_at) / Fold change (Aza/veh), FGFR1OP (ProbeSet 11751329_s_at) / Fold change (ACY-1035/veh), FGFR1OP (ProbeSet 11751329_s_at) / Fold change (Aza/veh), VPS36 (ProbeSet 11739960_a_at) / Fold change (ACY-1035/veh), VPS36 (ProbeSet 11739960_a_at) / RFU SYPL1 (11715823_x_at) / Fold change /veh SYPL1 (11715823_x_at) / RFU IGFBP7 (11715501_s_at) / Fold change /veh IGFBP7 (11715501_s_at) / RFU REEP3 (11722064_at) / Fold change /veh REEP3 (11722064_at) / RFU IGLL1 (11728026_x_at) / Fold change /veh IGLL1 (11728026_x_at): dose or concentration left out as unconfirmed
# Conditions: ProbeSet 11719817_x_at; LIST B
structure (smiles),measurement,value
Nc1ccc(-c2cccs2)cc1NC(=O)c1ccc2c(c1)cc(C1CC1)n2CCN1CCOCC1 [ACY-1035],"RFU, BET1",86.19 RFU
